Measured values from ChEMBL document CHEMBL1140179, “Rhabdastrellins A-F, isomalabaricane triterpenes from the marine sponge Rhabdastrella aff. distincta” (J Nat Prod, 2008).
In brackets after ≈: the same amount, converted by molar mass.

The molecules below were run on HL-60 (assay: Cytotoxicity against human HL60 cells).
Assay type: functional, cell-based

Question: With `C\C(=C/C=C/C(C)=C1/C(=O)C[C@H]2[C@@]3(C)CC[C@H](O)[C@](C)(CO)[C@@H]3CC[C@]12C)c1ccc(C)c(=O)o1` [RHABDASTRELLIN A] as the molecule, how does the IC50 read?
Answer: The IC50 was 4.2 µg/mL (≈ 8.74 µM).

Question: `COC(=O)/C(C)=C/C=C/C(C)=C/C=C/C(C)=C1\C(=O)C[C@H]2[C@@]3(C)CC[C@H](O)C(C)(C)[C@@H]3CC[C@]12C` [RHABDASTRELLIN F] was tested. Which IC50 did it give?
Answer: Its IC50 is > 10 µg/mL.

Question: `CC(/C=C/C(O)C(C)(C)O)=C\C=C\C(C)=C1\C(=O)C[C@H]2[C@@]3(C)CC[C@H](O)[C@](C)(CO)[C@@H]3CC[C@]12C` (stereo partly specified) [RHABDASTRELLIN C] was tested. Which IC50 did it give?
Answer: The IC50 was > 10 µg/mL.

Question: How did the IC50 turn out when `COC(=O)/C(C)=C/C=C/C(C)=C/C=C/C(C)=C1/C(=O)C[C@H]2[C@@]3(C)CC[C@H](O)C(C)(C)[C@@H]3CC[C@]12C` [RHABDASTRELLIN E] was run?
Answer: The IC50 was > 10 µg/mL.

Question: With `C/C(C(=O)/C=C/C(C)=C/C=C/C(C)(C)O)=C1/C(=O)C[C@H]2[C@@]3(C)CC[C@H](O)[C@](C)(CO)[C@@H]3CC[C@]12C` [RHABDASTRELLIN D] as the molecule, how does the IC50 read?
Answer: Its IC50 is > 10 µg/mL.

Question: How did the IC50 turn out when `CC(/C=C/C=C(C)/C=C/C(O)C(C)(C)O)=C1/C(=O)C[C@H]2[C@@]3(C)CC[C@H](O)[C@](C)(CO)[C@@H]3CC[C@]12C` (stereo partly specified) [RHABDASTRELLIN B] was run?
Answer: The IC50 was > 10 µg/mL.
